The text below walks through data of patent US10519177B2, “Heterocyclic compounds and uses thereof” (Plexxikon Inc., priority 2013, dated 2019).

In assay [1] the test system is bromodomain. Kind of assay: at least one of the bromodomain cell assays of Example 57. The class given is cell-based. To be noted: at least one of the bromodomain cell assays described in Example 57; read-out: IC50 in at least one of the bromodomain cell assays.
Assay [2] has as its system MV-4-11 cells. Kind of assay: Oncology cell growth assay MV-4-11 (CellTiter Glo). To be noted: Homo sapiens, MV4-11, 72 h; MV-4-11, 3d growth; read-out: Cell activity (IC50 μM) MV-4-11 3d-Growth. It is filed as cell-based. The source says:
Published bromodomain inhibitors JQ1 and iBET 151 have shown activity in variety of cancer cells such leukemia and lymphoma, multiple myeloma cells, NUT midline carcinoma and glioblastoma cells (Dawson M A et al. 2011; Delmore J E 2011; Chen Z et al. 2013; Filippakopoulos P et al. 2010; Mertz J A et al. 2011; Ott C J et al. 2012). In this study, we test compounds in different cancer cell lines. MV-4-11 and MOLM-13 are AML cell lines harboring a MLL-AF4 and MLL-AF9 translocation, respectively. MM.1S is a multiple myeloma cell line. SK-N-AS, IMR-32 and SK-N-BE(2) are neuroblastoma cell lines. IMR-32 and SK-N-BE(2) cell lines harbor MYCN amplifications.
MV-4-11, MM.1S, IMR-32, SK-N-AS and SK-N-BE(2) were obtained from ATCC (IL, USA) and MOLM-13 were purchased from DSMZ (Braunschweig, German). Cells are cultured as recommended by their sources. For growth inhibition studies 3000 cells are seeded in wells of a 96-well plate in 75 μL of culture media. After several hours, growth media containing compounds of formula (I) are added to the wells. Compound at a maximal concentration of 5 mM was serially diluted 1:3 for a total of 8 point titration with DMSO as a control. A 1 μL aliquot of each dilution point is added to 249 μL growth media and 75 μL is added to each well containing cells, providing 10 μM compound at the maximum concentration point. The final concentration of DMSO in all wells is 0.2%. Cells are incubated for 72 hours, and 25 μL of CellTiter Glo Reagent (Promega GA, USA) is added to each well. Plates are shaken for approximately 10 minutes and chemiluminescent signal is read on Tecan microplate reader. The measured luminescence correlates directly with cell number.
All data is normalized to the mean of eight DMSO high control wells on each plate. A four parameter curve fit of the following formula was then applied: Y=a+(b−a)/(1+(x/c)^d) Where ‘a’ is the minimum, ‘b’ is the maximum, ‘c’ is the pIC50 and ‘d’ is the Hill slope. […] Myc Reporter Assay

Take `Cc1noc(C)c1-c1ccc2c(-c3cnn(C)c3)cn(S(=O)(=O)c3ccccc3)c2c1` [P-0230, 4-[1-(benzenesulfonyl)-3-(1-methylpyrazol-4-yl)indol-6-yl]-3,5-dimethyl-isoxazole]: the IC50 in assay [1] was less than 10 µM. Same read-out and setting: in the case of `Cc1noc(C)c1-c1ccc2c(-c3cnn(C)c3)cn(S(=O)(=O)C3CCCC3)c2c1` [P-0231, 4-[1-cyclopentyl-sulfonyl-3-(1-methyl-pyrazol-4-yl)indol-6-yl]-3,5-dimethyl-isoxazole] it was less than 10 µM. The same measure, in the same setting: in the case of `COC(=O)c1ccc(-c2cn(CC3CC4CC4C3)c3cc(-c4c(C)noc4C)cnc23)cc1` (centres unmarked) [P-0609, methyl 4-[1-(3-bicyclo[3.1.0]hexanylmethyl)-6-(3,5-dimethylisoxazol-4-yl)pyrrolo[3,2-b]pyridin-3-yl]benzoate] it was less than 10 µM. Same read-out and setting: in the case of `COC(=O)c1ccc(-c2cn(C(c3ccccc3)c3ccccn3)c3cc(-c4c(C)noc4C)cnc23)cc1` (centres unmarked) [P-0610, methyl 4-[6-(3,5-dimethylisoxazol-4-yl)-1-[phenyl(2-pyridyl)methyl]pyrrolo[3,2-b]pyridin-3-yl]benzoate] it was less than 10 µM; in that of `Cc1noc(C)c1-c1cnc2c(-c3ccc(C(=O)O)cc3)cn(C(c3ccccc3)c3ccccn3)c2c1` (centres unmarked) [P-0611, 4-[6-(3,5-dimethylisoxazol-4-yl)-1-[phenyl(2-pyridyl)methyl]pyrrolo[3,2-b]pyridin-3-yl]benzoic acid], less than 10 µM; in that of `Cc1cc(-c2cnc3c(-c4ccc(C(=O)OC(C)(C)C)cc4)cn(CC4CCC(F)(F)CC4)c3c2)cn(C)c1=O` [P-0612, tert-butyl 4-[1-[(4,4-difluorocyclohexyl)methyl]-6-(1,5-dimethyl-6-oxo-3-pyridyl)pyrrolo[3,2-b]pyridin-3-yl]benzoate], less than 10 µM. Turning to `Cc1cc(-c2cnc3c(-c4ccc(C(=O)O)cc4)cn(CC4CCC(F)(F)CC4)c3c2)cn(C)c1=O` [P-0613, 4-[1-[(4,4-difluorocyclohexyl)methyl]-6-(1,5-dimethyl-6-oxo-3-pyridyl)pyrrolo[3,2-b]pyridin-3-yl]benzoic acid], the concentration for half-maximal inhibition (IC50) in assay [1] was less than 10 µM. On the same count and under the same terms, in the case of `Cc1noc(C)c1-c1cnc2c(-c3ncc(C(=O)O)cn3)cn(CC3CCC(F)(F)CC3)c2c1` [P-0614, 2-[1-[(4,4-difluorocyclohexyl)methyl]-6-(3,5-dimethylisoxazol-4-yl)pyrrolo[3,2-b]pyridin-3-yl]pyrimidine-5-carboxylic acid] it was less than 10 µM; in that of `[2H]C([2H])([2H])c1noc(C([2H])([2H])[2H])c1-c1cnc2c(-c3cnn(CC(F)(F)F)c3)cn(CC3CCC(F)(F)CC3)c2c1` [P-0615, 4-[1-[(4,4-difluorocyclohexyl)methyl]-3-[1-(2,2,2-trifluoroethyl)pyrazol-4-yl]pyrrolo[3,2-b]pyridin-6-yl]-3,5-bis(trideuteriomethyl)isoxazole], less than 10 µM; in that of `Cc1noc(C)c1-c1cnc2c(I)cn(C(c3ccccc3)c3ccccc3)c2c1` [P-0616, 4-(1-benzhydryl-3-iodo-pyrrolo[3,2-b]pyridin-6-yl)-3,5-dimethyl-isoxazole], less than 10 µM. On the same count and under the same terms, in the case of `COC(=O)c1ccc(-c2cn(C(c3ccccc3)c3ccccc3)c3cc(-c4c(C)noc4C)cnc23)cc1` [P-0617, methyl 4-[1-benzhydryl-6-(3,5-dimethylisoxazol-4-yl)pyrrolo[3,2-b]pyridin-3-yl]benzoate] it was less than 10 µM; in that of `Cc1noc(C)c1-c1cnc2c(-c3ccc(C(=O)OC(C)C)cc3)cn(CC3CCC(F)(F)CC3)c2c1` [P-0618, isopropyl 4-[1-[(4,4-difluorocyclohexyl)methyl]-6-(3,5-dimethylisoxazol-4-yl)pyrrolo[3,2-b]pyridin-3-yl]benzoate], less than 10 µM.

For the molecule `Cc1noc(C)c1-c1cnc2c(-c3ccc(S(C)(=O)=O)cc3)cn(CC3CCC(F)(F)CC3)c2c1` [P-0619, 4-[1-[(4,4-difluorocyclohexyl)methyl]-3-(4-methylsulfonylphenyl)pyrrolo[3,2-b]pyridin-6-yl]-3,5-dimethyl-isoxazole], the half-maximal inhibitory concentration (IC50) in assay [1] is less than 10 µM. The same measure, in the same setting: for `Cc1noc(C)c1-c1cnc2c(-c3ccc(C(=O)O)cc3)cn(C(c3ccccc3)c3ccccc3)c2c1` [P-0620, 4-[1-benzhydryl-6-(3,5-dimethylisoxazol-4-yl)pyrrolo[3,2-b]pyridin-3-yl]benzoic acid] the value was less than 10 µM. In the case of `Cc1noc(C)c1-c1cnc2c(-c3ccc(C(=O)O)cc3)cn(CC3CC4CC4C3)c2c1` (centres unmarked) [P-0621, 4-[1-(3-bicyclo[3.1.0]hexanylmethyl)-6-(3,5-dimethylisoxazol-4-yl)pyrrolo[3,2-b]pyridin-3-yl]benzoic acid], the IC50 in assay [1] was less than 10 µM. Regarding `Cc1ccc(-c2cn(CC3CCCCC3)c3cc(-c4c(C)noc4C)cnc23)cc1` [P-0622], the IC50 in assay [1] is less than 10 µM. The same measure, in the same setting: in the case of `Cc1noc(C)c1-c1cnc2c(-c3ccc(P(=O)(O)O)cc3)cn(CC3CCCCC3)c2c1` [P-0701, [4-[1-(cyclohexylmethyl)-6-(3,5-dimethylisoxazol-4-yl)pyrrolo[3,2-b]pyridin-3-yl]phenyl]phosphonic acid] it was less than 10 µM. Regarding `Cc1noc(C)c1-c1cnc2c(-c3ccc(C4(C(=O)O)CC4)cc3)cn(CC3CCCCC3)c2c1` [P-0702, 1-[4-[1-(cyclohexylmethyl)-6-(3,5-dimethylisoxazol-4-yl)pyrrolo[3,2-b]pyridin-3-yl]phenyl]cyclopropanecarboxylic acid], the half-inhibitory concentration (IC50) in assay [1] is less than 10 µM. The same measure, in the same setting: in the case of `Cc1noc(C)c1-c1cnc2c(-c3ccc(C(C)(C)C(=O)O)cc3)cn(CC3CCCCC3)c2c1` [P-0703, 2-[4-[1-(cyclohexylmethyl)-6-(3,5-dimethylisoxazol-4-yl)pyrrolo[3,2-b]pyridin-3-yl]phenyl]-2-methyl-propanoic acid] it was less than 10 µM; in that of `Cc1noc(C)c1-c1cnc2c(-c3ccc(CO)cc3)cn(CC3CCCCC3)c2c1` [P-0704, [4-[1-(cyclohexylmethyl)-6-(3,5-dimethylisoxazol-4-yl)pyrrolo[3,2-b]pyridin-3-yl]phenyl]methanol], less than 10 µM. The same measure, in the same setting: for `COC(=O)c1ccc(-c2cn(CC3CCCCC3)c3cc(-c4c(C)noc4C)cnc23)cc1` [P-0706, methyl 4-[1-(cyclohexylmethyl)-6-(3,5-dimethylisoxazol-4-yl)pyrrolo[3,2-b]pyridin-3-yl]benzoate] the value was less than 10 µM; for `CCOC(=O)c1ccc(-c2cn(CC3CCCCC3)c3cc(-c4c(C)noc4C)cnc23)cc1` [P-0707, ethyl 4-[1-(cyclohexylmethyl)-6-(3,5-dimethylisoxazol-4-yl)pyrrolo[3,2-b]pyridin-3-yl]benzoate], less than 10 µM; for `Cc1noc(C)c1-c1cnc2c(-c3ccc(B(O)O)cc3)cn(CC3CCCCC3)c2c1` [P-0709, [4-[1-(cyclohexylmethyl)-6-(3,5-dimethylisoxazol-4-yl)pyrrolo[3,2-b]pyridin-3-yl]phenyl]boronic acid], less than 10 µM.

For `Cc1noc(C)c1-c1cnc2c(F)cn([C@@H](c3ccccc3)c3ccccn3)c2c1` [P-0712, 4-[3-fluoro-1-[(S)-phenyl(2-pyridyl)methyl]pyrrolo[3,2-b]pyridin-6-yl]-3,5-dimethyl-isoxazole], the IC50 in assay [1] is less than 10 µM.

For the molecule `Cc1noc(C)c1-c1cnc2c(-c3ccc(CO)cc3)cn([C@@H](c3ccccc3)c3ccccn3)c2c1` [P-0713, [4-[6-(3,5-dimethylisoxazol-4-yl)-1-[(S)-phenyl(2-pyridyl)methyl]pyrrolo[3,2-b]pyridin-3-yl]phenyl]methanol], in assay [1], the 50% inhibitory concentration (IC50) was less than 10 µM. The same measure, in the same setting: for `Cc1ccc(-c2cn([C@@H](c3ccccc3)c3ccccn3)c3cc(-c4c(C)noc4C)cnc23)cc1` [P-0714, 3,5-dimethyl-4-[1-[(S)-phenyl(2-pyridyl)methyl]-3-(p-tolyl)pyrrolo[3,2-b]pyridin-6-yl]isoxazole] the value was less than 10 µM.

Consider `Cc1noc(C)c1-c1cnc2c(I)cn(Cc3ccccc3C#N)c2c1` [P-0921, 2-[[6-(3,5-dimethylisoxazol-4-yl)-3-iodo-pyrrolo[3,2-b]pyridin-1-yl]methyl]benzonitrile], for which the half-inhibitory concentration (IC50) in assay [2] was less than 1 µM. Same read-out and setting: for `COC(=O)c1ccc(-c2c[nH]c3cc(-c4c(C)noc4C)cnc23)cc1` [P-1033, methyl 4-[6-(3,5-dimethylisoxazol-4-yl)-1H-pyrrolo[3,2-b]pyridin-3-yl]benzoate] the value was 1 to 10 µM; for `Cc1noc(C)c1-c1ccc2c(I)cn([C@@H](C)c3ccccn3)c2c1` [P-1051, 4-[3-iodo-1-[(1S)-1-(2-pyridyl)ethyl]indol-6-yl]-3,5-dimethyl-isoxazole], 1 to 10 µM.
